Experimental data taken from paper PMC10132538, “Regulation of the two-pore domain potassium channel, THIK-1 and THIK-2, by G protein coupled receptors” (PLOS ONE, 2023).
Blank lines part the entries; values can stand above or below the compound they belong to.

Experiments:
[1] = system: endogenously expressed channels in HEK293T cells; assay: Effect of receptor stimulation on the endogenous current in HEK293T cells without THIK-1; type: cell-based; conditions: no THIK-1
Source text: The amplitude of the current increase at the 15th trace (ΔI15th) after the application of GABA or oxo-M were normalized to that at the 5th traces (ΔI5th) with or without additional activation of A2aR (ΔI15th/ΔI5th).
The current density at 0 mV (I0) in HEK293T cell transfected with indicated receptors and the effects of the receptor stimulation are shown as Mean and S.D.

[2] = molecular target: T1, M2R (Homo sapiens, UniProt P08172); assay: M2R-induced increase of THIK-1 channel current, whole cell patch clamp in HEK293T cells; type: cell-based
T1 construct: expressed in transfected cells; host or cells: HEK293T
T1 sequence (P08172 1-466): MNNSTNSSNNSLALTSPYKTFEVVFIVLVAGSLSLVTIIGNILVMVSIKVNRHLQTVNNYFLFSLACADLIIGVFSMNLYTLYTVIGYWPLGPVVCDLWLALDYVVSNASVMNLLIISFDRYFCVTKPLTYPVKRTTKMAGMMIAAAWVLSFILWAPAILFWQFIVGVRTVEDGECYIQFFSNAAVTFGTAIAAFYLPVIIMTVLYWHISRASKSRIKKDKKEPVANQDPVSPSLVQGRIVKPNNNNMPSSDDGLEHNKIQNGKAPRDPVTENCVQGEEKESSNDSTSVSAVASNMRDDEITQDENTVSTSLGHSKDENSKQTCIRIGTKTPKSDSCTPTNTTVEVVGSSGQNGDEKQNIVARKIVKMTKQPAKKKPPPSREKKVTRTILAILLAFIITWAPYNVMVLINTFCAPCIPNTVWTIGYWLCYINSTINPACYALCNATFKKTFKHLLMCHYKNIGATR
Source text: (§1) Coding region of mGu2 (M1-P840) was amplified by conventional PCR with designed primers and the resulting product was subcloned into pEYFP-N1 vector at the BglII and EcoRI sites. The cDNAs for mouse THIK-2 channel and dimeric THIK channels were subcloned into pcDNA3.1(-) vector. To increase the surface membrane expression of the THIK-2 channel, 29 residues (Ser2-Ser30) were removed (ΔN-THIK-2). […] Ci-VSP-IRES-GFP vector was kindly gifted by Dr. Y. Okamura (Osaka University, Osaka, Japan). HEK293T cells or CHO-K1 cells were seeded on glasses and transfected with the plasmid DNAs for THIK channels, receptors and a transfection marker of yellow fluorescent protein (YFP). Electrophysiological experiments were performed 24–72 h after the transfection. […] Pertussis toxin (PTX) was purchased from Wako (Osaka, Japan). […] All reagents were dissolved at high concentration and stored at -20 °C as the stock solutions. The stock reagent solution was diluted at concentrations for the electrophysiological experiments. […]
(§2) The amplitude of the THIK-1 channel current at 0 mV was measured from every trace induced by the ramp pulse protocol to minimize the fraction of non-selective cationic leak current. […] The effects of GPCRs on the THIK-1 channel were evaluated as the ratio of the current amplitude after the agonist application to I0 (Iagonist/I0). […]

[3] = molecular target: T2, M1R (Homo sapiens, UniProt P11229); assay: M1R-induced increase of THIK-1 channel current, whole cell patch clamp in HEK293T cells; type: cell-based
T2 construct: expressed in transfected cells; host or cells: HEK293T
T2 sequence (P11229 1-460): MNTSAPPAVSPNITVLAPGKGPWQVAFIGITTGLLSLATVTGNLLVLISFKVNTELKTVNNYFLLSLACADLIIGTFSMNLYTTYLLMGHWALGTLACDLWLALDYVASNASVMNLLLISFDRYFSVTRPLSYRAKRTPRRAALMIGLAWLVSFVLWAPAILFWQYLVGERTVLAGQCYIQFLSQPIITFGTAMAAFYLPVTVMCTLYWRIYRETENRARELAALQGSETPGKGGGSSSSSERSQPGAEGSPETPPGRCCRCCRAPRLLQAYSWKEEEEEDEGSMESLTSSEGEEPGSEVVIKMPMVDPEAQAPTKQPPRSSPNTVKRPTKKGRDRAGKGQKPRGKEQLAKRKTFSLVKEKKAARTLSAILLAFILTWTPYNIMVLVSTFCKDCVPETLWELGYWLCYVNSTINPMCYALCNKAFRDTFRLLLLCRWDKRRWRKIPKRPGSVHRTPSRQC
Source text: (§3) Coding region of mGu2 (M1-P840) was amplified by conventional PCR with designed primers and the resulting product was subcloned into pEYFP-N1 vector at the BglII and EcoRI sites. The cDNAs for mouse THIK-2 channel and dimeric THIK channels were subcloned into pcDNA3.1(-) vector. To increase the surface membrane expression of the THIK-2 channel, 29 residues (Ser2-Ser30) were removed (ΔN-THIK-2). […] Ci-VSP-IRES-GFP vector was kindly gifted by Dr. Y. Okamura (Osaka University, Osaka, Japan). HEK293T cells or CHO-K1 cells were seeded on glasses and transfected with the plasmid DNAs for THIK channels, receptors and a transfection marker of yellow fluorescent protein (YFP). Electrophysiological experiments were performed 24–72 h after the transfection. […] Pertussis toxin (PTX) was purchased from Wako (Osaka, Japan). […] All reagents were dissolved at high concentration and stored at -20 °C as the stock solutions. The stock reagent solution was diluted at concentrations for the electrophysiological experiments. PTX was solved in the culture medium (final concentration, 300 ng/mL) and cells were incubated in it for more than 16 h. U73122 or U73343 (final concentration, 2 μM each) was dissolved in Hanks’ Balanced Salt Solution (HBSS, Invitrogen, Carlsbad, CA, USA) supplemented with 1 mM Ca^2+ and 0.3 mM Mg^2+. Cells were incubated in HBSS with U73122 or U73343 for 10 min at room temperature before the whole cell current recording.
(§4) Composition of bath solution was (in mM) 140 NaCl, 4 KCl, 1 CaCl2, 0.3 MgCl2, 10 HEPES (pH 7.4 adjusted with NaOH). The pipette solution for whole cell patch clamp experiments contained (mM) 130 KCl, 5 Na2-ATP, 3 EGTA, 0.1 CaCl2, 10 HEPES, 4 MgCl2, (pH 7.3 adjusted with KOH). GTP (0.3 mM) was supplemented in the pipette solution. Once the whole cell configuration was established, the cell was held at -80mV and ramp pulses (-120mV to +40mV for 0.4 sec) were applied every 5 sec. Various concentrations of the agonists were applied using a fast perfusion system (VC77SP, Warner Instruments, Hamden, CT, USA). The PKC inhibitor chelerythrine was included in the pipette solution.
(§5) The amplitude of the THIK-1 channel current at 0 mV was measured from every trace induced by the ramp pulse protocol to minimize the fraction of non-selective cationic leak current. The current amplitude before the agonist application was set as the basal current amplitude (I0). The effects of GPCRs on the THIK-1 channel were evaluated as the ratio of the current amplitude after the agonist application to I0 (Iagonist/I0). The EC50 values were estimated by fitting the concentration response curve to a Hill equation (Origin2016; OriginLab, Northampton, MA, USA). […] The effects of A2aR on the Gi/o-R-induced current increase of the THIK-1 channel was estimated as follows. […] All data are shown as means and S.D. The statistical significance between two or more than two groups was estimated by unpaired Student’s t-test or by a one-way analysis of variance (ANOVA) followed by Tukey’s test, respectively. […] Values of p≤ 0.05 were considered as statistically significant (***:p≤0.001, **:0.001<p≤0.01, *:0.01<p≤0.05, n.s.:p>0.05).

[4] = molecular target: T3, M3R (Homo sapiens, UniProt P20309); assay: M3R-induced increase of THIK-1 channel current, whole cell patch clamp in HEK293T cells; type: cell-based
T3 construct: expressed in transfected cells; host or cells: HEK293T
T3 sequence (P20309 whole entry): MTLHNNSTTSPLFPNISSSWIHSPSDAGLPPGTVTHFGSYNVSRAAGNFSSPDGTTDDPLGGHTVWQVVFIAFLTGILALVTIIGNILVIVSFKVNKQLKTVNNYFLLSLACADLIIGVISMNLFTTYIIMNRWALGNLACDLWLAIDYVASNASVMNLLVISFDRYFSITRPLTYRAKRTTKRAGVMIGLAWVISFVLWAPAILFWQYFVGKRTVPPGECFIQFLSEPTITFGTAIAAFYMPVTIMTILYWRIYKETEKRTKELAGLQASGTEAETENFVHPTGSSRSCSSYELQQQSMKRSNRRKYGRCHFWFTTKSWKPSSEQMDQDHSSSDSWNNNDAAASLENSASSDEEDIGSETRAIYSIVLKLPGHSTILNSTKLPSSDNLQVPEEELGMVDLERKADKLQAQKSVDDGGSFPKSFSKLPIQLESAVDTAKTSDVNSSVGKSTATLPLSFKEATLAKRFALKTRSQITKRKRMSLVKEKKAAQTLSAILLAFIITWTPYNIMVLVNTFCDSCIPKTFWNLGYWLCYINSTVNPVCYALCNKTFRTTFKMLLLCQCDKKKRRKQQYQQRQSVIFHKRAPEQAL
Source text: as §1, §2

[5] = molecular target: T4, mGlu1 (Homo sapiens, UniProt Q13255); assay: mGlu1-induced increase of THIK-1 channel current, whole cell patch clamp in HEK293T cells; type: cell-based; conditions: 2 μM for 10 min; glutamate 1 mM
T4 construct: expressed in transfected cells; host or cells: HEK293T
T4 sequence (Q13255 19-1194): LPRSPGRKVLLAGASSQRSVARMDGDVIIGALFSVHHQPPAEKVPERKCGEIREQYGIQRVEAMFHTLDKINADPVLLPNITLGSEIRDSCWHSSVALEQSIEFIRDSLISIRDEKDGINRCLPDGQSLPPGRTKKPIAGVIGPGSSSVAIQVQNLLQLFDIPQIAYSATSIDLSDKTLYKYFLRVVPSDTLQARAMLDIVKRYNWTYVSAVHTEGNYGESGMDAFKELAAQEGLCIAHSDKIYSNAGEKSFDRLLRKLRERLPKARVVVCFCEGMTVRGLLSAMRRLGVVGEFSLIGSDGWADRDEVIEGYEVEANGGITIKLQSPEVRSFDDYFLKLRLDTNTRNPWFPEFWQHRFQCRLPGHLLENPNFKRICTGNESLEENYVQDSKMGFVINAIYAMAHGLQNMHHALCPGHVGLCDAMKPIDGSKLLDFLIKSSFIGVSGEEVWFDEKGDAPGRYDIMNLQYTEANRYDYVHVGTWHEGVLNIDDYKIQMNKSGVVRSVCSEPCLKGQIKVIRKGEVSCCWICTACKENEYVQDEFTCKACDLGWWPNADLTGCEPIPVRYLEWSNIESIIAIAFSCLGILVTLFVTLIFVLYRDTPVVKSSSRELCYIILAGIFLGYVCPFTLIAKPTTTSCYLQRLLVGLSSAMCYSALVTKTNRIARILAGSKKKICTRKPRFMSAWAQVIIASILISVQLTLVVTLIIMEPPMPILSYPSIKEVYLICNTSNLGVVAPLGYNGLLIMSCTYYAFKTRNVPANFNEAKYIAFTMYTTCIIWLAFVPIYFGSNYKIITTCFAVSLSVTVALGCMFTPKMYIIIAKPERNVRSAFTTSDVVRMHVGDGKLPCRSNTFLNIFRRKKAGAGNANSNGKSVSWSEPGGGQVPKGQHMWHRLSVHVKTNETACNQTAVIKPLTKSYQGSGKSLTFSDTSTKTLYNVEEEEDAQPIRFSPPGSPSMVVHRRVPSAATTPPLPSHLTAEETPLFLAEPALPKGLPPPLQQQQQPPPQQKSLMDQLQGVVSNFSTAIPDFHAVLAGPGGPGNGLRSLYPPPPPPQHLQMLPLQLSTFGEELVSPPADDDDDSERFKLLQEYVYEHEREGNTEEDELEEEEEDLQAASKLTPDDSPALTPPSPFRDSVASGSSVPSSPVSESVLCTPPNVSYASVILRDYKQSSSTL
Source text: as §1, §2

[6] = molecular target: T5, M1R-YFP / ΔN-THIK-2 channel (Homo sapiens, UniProt P11229); assay: M1R-YFP-induced increase of ΔN-THIK-2 channel current in CHO-K1 cells; type: cell-based, mouse; conditions: oxo-M 10 μM
T5 construct: expressed in transfected cells; host or cells: CHO-K1
T5 sequence (P11229 1-460): T2 sequence (P11229 1-460)
Source text: as §3, with “Cells were incubated in HBSS with U73122 or U73343 for 10 min at room temperature before the whole cell current recording.” left out

[7] = system: THIK-1 channel; assay: Basal current (I0) density of THIK-1 channel at 0 mV in HEK293T cells; type: cell-based; conditions: 0 mV, before agonist
Source text: as §3, §4, §5

[8] = system: THIK-1 channel; design: method as in PMID 34928298; conditions: cited from earlier work
[9] = concentration response of THIK-1 current increase
[10] = concentration response of THIK-1 current increase (Iagonist/I0), Hill fit

Compound: C[N+](C)(C)CC#CCN1CCCC1=O [oxo-M, oxotremorine-M]
Effect of agonist (Iagonist/I0) ([1]; HEK293T transfected with M1R): 0.95 ± 0.15
Effect of agonist (Iagonist/I0) ([1]; HEK293T transfected with M2R): 0.97 ± 0.12
Effect of agonist (Iagonist/I0) ([1]; HEK293T transfected with M3R): 1.01 ± 0.13
n; Hill coefficient [2, 9]: 1.54 ± 0.37
EC50 [2, 10]: 62700 ± 35800 nM
EC50 ([3]; concentration response of THIK-1 current increase (Iagonist/I0), Hill fit, HEK293T): 270 ± 160 nM
n; Hill coefficient ([3]; concentration response of THIK-1 current increase, HEK293T): 1.14 ± 0.22
Ioxo/I0 ([3]; oxo-M 10 μM, chelerythrine 0 μM (control of Table 3)): 2.8 ± 1.1
n; Hill coefficient [4, 9]: 1.07 ± 0.43
EC50 [4, 10]: 400 ± 310 nM

effect of mGlu1 on THIK-1 current after PLC reagent [5]: inhibited
effect of M1R-YFP on ΔN-THIK-2 channel after PLC reagent [6]: inhibited
Compound: COc1ccc2c(c1)CC[C@@H]1[C@@H]2CC[C@]2(C)[C@@H](NCCCCCCN3C(=O)C=CC3=O)CC[C@@H]12 [U73122]
Basal current (I0) density of THIK-1 channel ([7]; THIK-1 + M1R, PLC reagent 2 μM 10 min): 35.7 ± 34.7 (9)^n.s pA/pF
Basal current (I0) density of THIK-1 channel ([7]; THIK-1 + M3R, PLC reagent 2 μM 10 min): 99.2 ± 117.3 (7)^n.s pA/pF
Basal current (I0) density of THIK-1 channel ([7]; THIK-1 + mGlu1, PLC reagent 2 μM 10 min): 112.2 ± 121.4 (10)^n.s pA/pF

Compound: NCCCC(=O)O [GABA]
Effect of agonist (Iagonist/I0) ([1]; HEK293T transfected with GABABR): 1.03 ± 0.06

effect of the M1R activation (Iagonist/I0) ([3]; BAPTA 5 mM in pipette solution, n = 8): 3.0 ± 1.0
Compound: O=C(O)CN(CC(=O)O)c1ccccc1OCCOc1ccccc1N(CC(=O)O)CC(=O)O [BAPTA]

Compound: phosphatidyl inositol bisphosphate [PIP2]
activation of the THIK-1 channel [8]: directly activate
